From PubChem BioAssay (NCI)
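Cells were grown in 96-well plates and exposed to each compound for 48 hours at five concentrations; endpoints were interpolated linearly between bracketing concentrations, or set to the highest concentration if not reached. TGI is the concentration that stops growth completely.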

Columns and labels:
Experiment in all cases: NCI-60 cell line screen, 48 h
COLO 205 colon = test system: COLO 205 colon
TK-10 renal = test system: TK-10 renal
SW-620 colon = test system: SW-620 colon
NCI/ADR-RES ovarian = test system: NCI/ADR-RES ovarian
MOLT-4 leukemia = test system: MOLT-4 leukemia
SK-MEL-2 melanoma = test system: SK-MEL-2 melanoma
DU-145 prostate = test system: DU-145 prostate
SF-295 CNS = test system: SF-295 CNS
SNB-75 CNS = test system: SNB-75 CNS
KM12 colon = test system: KM12 colon
MCF7 breast = test system: MCF7 breast
M14 melanoma = test system: M14 melanoma
SK-MEL-28 melanoma = test system: SK-MEL-28 melanoma
NCI-H226 lung = test system: NCI-H226 lung
RPMI-8226 leukemia = test system: RPMI-8226 leukemia
UACC-62 melanoma = test system: UACC-62 melanoma
OVCAR-5 ovarian = test system: OVCAR-5 ovarian
EKVX NSCLC = test system: EKVX NSCLC
OVCAR-8 ovarian = test system: OVCAR-8 ovarian
SK-OV-3 ovarian = test system: SK-OV-3 ovarian
K-562 leukemia = test system: K-562 leukemia
MDA-N = test system: MDA-N
HOP-62 NSCLC = test system: HOP-62 NSCLC
NCI-H23 lung = test system: NCI-H23 lung
NCI-H522 lung = test system: NCI-H522 lung
IGROV1 ovarian = test system: IGROV1 ovarian
A549 NSCLC = test system: A549 NSCLC
UO-31 renal = test system: UO-31 renal
SK-MEL-5 melanoma = test system: SK-MEL-5 melanoma
HCT-116 colon = test system: HCT-116 colon
HS 578T breast = test system: HS 578T breast
HCT-15 colon = test system: HCT-15 colon
U251 CNS = test system: U251 CNS
MALME-3M melanoma = test system: MALME-3M melanoma
PC-3 prostate = test system: PC-3 prostate
SF-268 CNS = test system: SF-268 CNS
SR leukemia = test system: SR leukemia
786-0 renal = test system: 786-0 renal
LOX IMVI melanoma = test system: LOX IMVI melanoma
MDA-MB-231 breast = test system: MDA-MB-231 breast
A498 renal = test system: A498 renal
CCRF-CEM leukemia = test system: CCRF-CEM leukemia
SN12C renal = test system: SN12C renal
HT29 colon = test system: HT29 colon
ACHN renal = test system: ACHN renal
OVCAR-3 ovarian = test system: OVCAR-3 ovarian
MDA-MB-435 = test system: MDA-MB-435
UACC-257 melanoma = test system: UACC-257 melanoma
CAKI-1 renal = test system: CAKI-1 renal
OVCAR-4 ovarian = test system: OVCAR-4 ovarian
HL-60(TB) leukemia = test system: HL-60(TB) leukemia
RXF 393 renal = test system: RXF 393 renal
T-47D breast = test system: T-47D breast
HCC-2998 colon = test system: HCC-2998 colon
HOP-92 NSCLC = test system: HOP-92 NSCLC

**Q.** `CSC1=N/C(=C\c2ccc(Cl)cc2)C(=O)N1CN1CCCCC1` was tested. Which TGI (COLO 205 colon) did it give?
**A.** > 100 µM

**Q.** What about the TGI (TK-10 renal) of the same compound?
**A.** > 100 µM

**Q.** What about the TGI (SW-620 colon) of the same compound?
**A.** > 100 µM

**Q.** And the TGI (NCI/ADR-RES ovarian)?
**A.** > 100 µM

**Q.** What about the TGI (MOLT-4 leukemia) of the same compound?
**A.** > 100 µM

**Q.** What about the TGI (SK-MEL-2 melanoma) of the same compound?
**A.** > 100 µM

**Q.** And the TGI (DU-145 prostate)?
**A.** > 100 µM

**Q.** What about the TGI (SF-295 CNS) of the same compound?
**A.** > 100 µM

**Q.** What about the TGI (SNB-75 CNS) of the same compound?
**A.** > 100 µM

**Q.** And the TGI (KM12 colon)?
**A.** > 100 µM

**Q.** And the TGI (MCF7 breast)?
**A.** 82.8 µM

**Q.** What about the TGI (M14 melanoma) of the same compound?
**A.** > 100 µM

**Q.** And the TGI (SK-MEL-28 melanoma)?
**A.** > 100 µM

**Q.** What about the TGI (NCI-H226 lung) of the same compound?
**A.** > 100 µM

**Q.** What about the TGI (RPMI-8226 leukemia) of the same compound?
**A.** > 100 µM

**Q.** And the TGI (UACC-62 melanoma)?
**A.** > 100 µM

**Q.** And the TGI (OVCAR-5 ovarian)?
**A.** > 100 µM

**Q.** And the TGI (EKVX NSCLC)?
**A.** 53.3 µM

**Q.** What about the TGI (OVCAR-8 ovarian) of the same compound?
**A.** > 100 µM

**Q.** What about the TGI (SK-OV-3 ovarian) of the same compound?
**A.** > 100 µM

**Q.** What about the TGI (K-562 leukemia) of the same compound?
**A.** > 100 µM

**Q.** And the TGI (MDA-N)?
**A.** > 100 µM

**Q.** What about the TGI (HOP-62 NSCLC) of the same compound?
**A.** > 100 µM

**Q.** And the TGI (NCI-H23 lung)?
**A.** > 100 µM

**Q.** What about the TGI (NCI-H522 lung) of the same compound?
**A.** > 100 µM

**Q.** And the TGI (IGROV1 ovarian)?
**A.** 93.2 µM

**Q.** And the TGI (A549 NSCLC)?
**A.** > 100 µM

**Q.** And the TGI (UO-31 renal)?
**A.** > 100 µM

**Q.** What about the TGI (SK-MEL-5 melanoma) of the same compound?
**A.** > 100 µM

**Q.** And the TGI (HCT-116 colon)?
**A.** > 100 µM

**Q.** And the TGI (HS 578T breast)?
**A.** > 100 µM

**Q.** What about the TGI (HCT-15 colon) of the same compound?
**A.** > 100 µM

**Q.** What about the TGI (U251 CNS) of the same compound?
**A.** > 100 µM

**Q.** What about the TGI (MALME-3M melanoma) of the same compound?
**A.** 91.7 µM

**Q.** And the TGI (PC-3 prostate)?
**A.** > 100 µM

**Q.** And the TGI (SF-268 CNS)?
**A.** > 100 µM

**Q.** And the TGI (SR leukemia)?
**A.** > 100 µM

**Q.** And the TGI (786-0 renal)?
**A.** > 100 µM

**Q.** What about the TGI (LOX IMVI melanoma) of the same compound?
**A.** > 100 µM

**Q.** What about the TGI (MDA-MB-231 breast) of the same compound?
**A.** > 100 µM

**Q.** And the TGI (A498 renal)?
**A.** > 100 µM

**Q.** And the TGI (CCRF-CEM leukemia)?
**A.** > 100 µM

**Q.** And the TGI (SN12C renal)?
**A.** > 100 µM

**Q.** And the TGI (HT29 colon)?
**A.** > 100 µM

**Q.** And the TGI (ACHN renal)?
**A.** 96.2 µM

**Q.** And the TGI (OVCAR-3 ovarian)?
**A.** > 100 µM

**Q.** What about the TGI (MDA-MB-435) of the same compound?
**A.** > 100 µM

**Q.** Which TGI (COLO 205 colon) does the source give for `COc1ccccc1Nc1nc2c([nH]1)c(=O)n(C)c(=O)n2C` here?
**A.** > 10 µM

**Q.** And the TGI (TK-10 renal)?
**A.** > 10 µM

**Q.** What about the TGI (SW-620 colon) of the same compound?
**A.** > 10 µM

**Q.** What about the TGI (MOLT-4 leukemia) of the same compound?
**A.** > 10 µM

**Q.** And the TGI (DU-145 prostate)?
**A.** > 10 µM

**Q.** And the TGI (SF-295 CNS)?
**A.** > 10 µM

**Q.** And the TGI (SNB-75 CNS)?
**A.** > 10 µM

**Q.** And the TGI (KM12 colon)?
**A.** > 10 µM

**Q.** What about the TGI (MCF7 breast) of the same compound?
**A.** > 10 µM

**Q.** And the TGI (M14 melanoma)?
**A.** > 10 µM

**Q.** What about the TGI (SK-MEL-28 melanoma) of the same compound?
**A.** > 10 µM

**Q.** What about the TGI (RPMI-8226 leukemia) of the same compound?
**A.** > 10 µM

**Q.** What about the TGI (UACC-257 melanoma) of the same compound?
**A.** > 10 µM

**Q.** And the TGI (UACC-62 melanoma)?
**A.** > 10 µM

**Q.** And the TGI (CAKI-1 renal)?
**A.** > 10 µM

**Q.** What about the TGI (EKVX NSCLC) of the same compound?
**A.** > 10 µM

**Q.** What about the TGI (OVCAR-4 ovarian) of the same compound?
**A.** > 10 µM

**Q.** And the TGI (HL-60(TB) leukemia)?
**A.** > 10 µM

**Q.** And the TGI (OVCAR-8 ovarian)?
**A.** > 10 µM

**Q.** What about the TGI (SK-OV-3 ovarian) of the same compound?
**A.** > 10 µM

**Q.** And the TGI (K-562 leukemia)?
**A.** > 10 µM

**Q.** What about the TGI (MDA-N) of the same compound?
**A.** > 10 µM

**Q.** And the TGI (HOP-62 NSCLC)?
**A.** > 10 µM

**Q.** What about the TGI (NCI-H23 lung) of the same compound?
**A.** > 10 µM

**Q.** And the TGI (RXF 393 renal)?
**A.** > 10 µM

**Q.** And the TGI (IGROV1 ovarian)?
**A.** > 10 µM

**Q.** And the TGI (A549 NSCLC)?
**A.** > 10 µM

**Q.** What about the TGI (SK-MEL-5 melanoma) of the same compound?
**A.** > 10 µM

**Q.** And the TGI (T-47D breast)?
**A.** > 10 µM

**Q.** And the TGI (HCT-15 colon)?
**A.** > 10 µM

**Q.** And the TGI (MALME-3M melanoma)?
**A.** > 10 µM

**Q.** What about the TGI (HCC-2998 colon) of the same compound?
**A.** > 10 µM

**Q.** And the TGI (HOP-92 NSCLC)?
**A.** > 10 µM

**Q.** And the TGI (PC-3 prostate)?
**A.** > 10 µM

**Q.** What about the TGI (SF-268 CNS) of the same compound?
**A.** > 10 µM

**Q.** And the TGI (SR leukemia)?
**A.** > 10 µM

**Q.** What about the TGI (786-0 renal) of the same compound?
**A.** > 10 µM

**Q.** What about the TGI (LOX IMVI melanoma) of the same compound?
**A.** > 10 µM

**Q.** And the TGI (MDA-MB-231 breast)?
**A.** > 10 µM

**Q.** What about the TGI (CCRF-CEM leukemia) of the same compound?
**A.** > 10 µM

**Q.** And the TGI (SN12C renal)?
**A.** > 10 µM

**Q.** And the TGI (HT29 colon)?
**A.** > 10 µM

**Q.** What about the TGI (MDA-MB-435) of the same compound?
**A.** > 10 µM
